Values joined by “and” are separate entries in the source; they are usually repeats but may differ in a detail not shown here. Identical values can stand only once. Inconclusive results and toxic doses are left out. No stated cut-off is given here; in the data, active means T/C of 150% or more; inactive means T/C below 125%.
Tested on: L1210 leukemia ip in BDF1 mice, survival T/C
Test: NCI In Vivo Anticancer Drug Screen. Data for tumor model L1210 Leukemia (intraperitoneal) in B6D2F1 (BDF1) mice
Conditions: endpoint: mean survival time, higher = longer survival
How it was run: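 Transplanted-tumor mice were given test agent; controls received vehicle only. Survival readings from the two groups were divided (treated over control).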

[1] = dose: 100.0 mg/kg/injection, schedule: Q01DX009 (ip), vehicle: Klucel (hydroxypropylcellulose) (HPC)
[2] = dose: 200.0 mg/kg/injection, schedule: Q01DX009 (ip), vehicle: Klucel (hydroxypropylcellulose) (HPC)
[3] = dose: 400.0 mg/kg/injection, schedule: Q01DX009 (ip), vehicle: Klucel (hydroxypropylcellulose) (HPC)
[4] = dose: 100.0 mg/kg/injection, schedule: Q01DX001 (ip), vehicle: saline
[5] = dose: 200.0 mg/kg/injection, schedule: Q01DX001 (ip), vehicle: saline
[6] = dose: 400.0 mg/kg/injection, schedule: Q01DX001 (ip), vehicle: saline
[7] = dose: 100.0 mg/kg/injection, schedule: Q04DX003 (ip), vehicle: saline with Tween-80
[8] = dose: 200.0 mg/kg/injection, schedule: Q04DX003 (ip), vehicle: saline with Tween-80
[9] = dose: 400.0 mg/kg/injection, schedule: Q04DX003 (ip), vehicle: saline with Tween-80
[10] = dose: 100.0 mg/kg/injection, schedule: Q01DX009 (ip), vehicle: saline
[11] = dose: 100.0 mg/kg/injection, schedule: Q04DX003 (ip), vehicle: saline
[12] = dose: 200.0 mg/kg/injection, schedule: Q01DX009 (ip), vehicle: saline
[13] = dose: 200.0 mg/kg/injection, schedule: Q04DX003 (ip), vehicle: saline
[14] = dose: 400.0 mg/kg/injection, schedule: Q01DX009 (ip), vehicle: saline
[15] = dose: 400.0 mg/kg/injection, schedule: Q04DX003 (ip), vehicle: saline
[16] = dose: 100.0 mg/kg/injection, schedule: Q01DX001 (ip), vehicle: saline with Tween-80
[17] = dose: 200.0 mg/kg/injection, schedule: Q01DX001 (ip), vehicle: saline with Tween-80
[18] = dose: 400.0 mg/kg/injection, schedule: Q01DX001 (ip), vehicle: saline with Tween-80
[19] = dose: 100.0 mg/kg/injection, schedule: Q04DX003 (ip), vehicle: Klucel (hydroxypropylcellulose) (HPC)
[20] = dose: 200.0 mg/kg/injection, schedule: Q04DX003 (ip), vehicle: Klucel (hydroxypropylcellulose) (HPC)
[21] = dose: 75.0 mg/kg/injection, schedule: Q01DX001 (ip), vehicle: other
[22] = dose: 100.0 mg/kg/injection, schedule: Q01DX001 (ip), vehicle: carboxymethylcellulose (CMC)
[23] = dose: 200.0 mg/kg/injection, schedule: Q01DX001 (ip), vehicle: carboxymethylcellulose (CMC)

Measured: T/C

CC12CCN=C1c1ccc3cc(O)ccc3c1CC2 (stereo not given)
inactive: dose: 100.0 mg/kg/injection, schedule: Q04DX003 (sc), vehicle: steriod suspending solution 93 % of control | dose: 200.0 mg/kg/injection, schedule: Q04DX003 (sc), vehicle: steriod suspending solution 107 % of control | dose: 400.0 mg/kg/injection, schedule: Q04DX003 (sc), vehicle: steriod suspending solution 96 % of control

O=C1CCN2CCC(=O)c3c(Cl)ccc1c32
inactive: dose: 100.0 mg/kg/injection, schedule: Q01DX001 (ip), vehicle: other 100 % of control | dose: 200.0 mg/kg/injection, schedule: Q01DX001 (ip), vehicle: other 97 % of control | dose: 400.0 mg/kg/injection, schedule: Q01DX001 (ip), vehicle: other 100 % of control

Cc1ccc(N2C(=O)CC(N3CCCCC3)C2=O)cc1 (stereo not given)
inactive: [1] 102 % of control | [2] 96 % of control | [3] 91 % of control

O=[N+]([O-])c1cc2c(c3cccnc13)COCO2
inactive: [4] 102 % of control | [5] 100 % of control | [6] 94 % of control

O=c1[nH]c2nc3ccccc3nc2c(=O)n1O
inactive: [1] 100 % of control | [2] 105 % of control

COc1cc(N)c(CC2c3cc(OC)c(OC)cc3CCN2C)cc1OC (stereo not given)
inactive: dose: 75.0 mg/kg/injection, schedule: Q01DX001 (ip), vehicle: carboxymethylcellulose (CMC) 95 % of control | dose: 150.0 mg/kg/injection, schedule: Q01DX001 (ip), vehicle: carboxymethylcellulose (CMC) 95 % of control

CC(=O)[O][Sn]([CH2]C1CCCCC1)([CH2]C1CCCCC1)[CH2]C1CCCCC1
inactive: dose: 6.25 mg/kg/injection, schedule: Q04DX002 (ip), vehicle: saline with Tween-80 96 % of control | dose: 12.5 mg/kg/injection, schedule: Q04DX002 (ip), vehicle: saline with Tween-80 96 % of control

OCCC1=CCCCC1
inactive: [7] 97 % of control | [8] 95 % of control | [9] 93 % of control

CCN(CC)CCCNC=O
inactive: [10] 94 % of control | [11] 111 % of control | [12] 94 % of control | [13] 102 % of control | [14] 94 % of control | [15] 108 % of control

CCCCCC[Si]CCCCCC
inactive: [16] 94 % of control | [17] 100 % of control | [18] 94 % of control

O=C(NC1CCCCC1)c1ccc2ccccc2c1O
inactive: [8] 98 % of control | [9] 95 % of control

CCCCCCCCCC(=O)CCCCCC
inactive: [1] 96 % of control | [19] 95 % of control | [2] 98 % of control | [20] 103 % of control | [3] 107 % of control | dose: 400.0 mg/kg/injection, schedule: Q04DX003 (ip), vehicle: Klucel (hydroxypropylcellulose) (HPC) 93 % of control

CCC(C)NCCOC(=O)C(c1ccccc1)c1ccccc1 (stereo not given)
inactive: [21] 93 % of control

Cc1ccc(S(=O)(=O)F)cc1N
inactive: dose: 25.0 mg/kg/injection, schedule: Q01DX009 (ip), vehicle: carboxymethylcellulose (CMC) 95 % of control and 100 % of control | dose: 25.0 mg/kg/injection, schedule: Q04DX002 (ip), vehicle: carboxymethylcellulose (CMC) 100 % of control and 106 % of control | dose: 50.0 mg/kg/injection, schedule: Q01DX001 (ip), vehicle: carboxymethylcellulose (CMC) 104 % of control and 87 % of control | dose: 50.0 mg/kg/injection, schedule: Q01DX009 (ip), vehicle: carboxymethylcellulose (CMC) 103 % of control and 88 % of control | dose: 50.0 mg/kg/injection, schedule: Q04DX002 (ip), vehicle: carboxymethylcellulose (CMC) 93 % of control and 100 % of control | dose: 50.0 mg/kg/injection, schedule: Q04DX003 (ip), vehicle: carboxymethylcellulose (CMC) 98 % of control and 90 % of control | [22] 101 % of control and 104 % of control | dose: 100.0 mg/kg/injection, schedule: Q04DX002 (ip), vehicle: carboxymethylcellulose (CMC) 107 % of control and 90 % of control | dose: 100.0 mg/kg/injection, schedule: Q04DX003 (ip), vehicle: carboxymethylcellulose (CMC) 94 % of control and 87 % of control | [23] 106 % of control and 111 % of control | dose: 200.0 mg/kg/injection, schedule: Q04DX003 (ip), vehicle: carboxymethylcellulose (CMC) 96 % of control and 87 % of control

CC12CCCCC1CC/C(=C\c1ccco1)C2=O (stereo not given)
inactive: [10] 98 % of control | [11] 97 % of control | [12] 98 % of control | [13] 100 % of control | [14] 95 % of control | [15] 100 % of control

CC(C)(C)OC(=O)N/N=C/c1ccc([N+](=O)[O-])s1
inactive: [7] 94 % of control | [8] 98 % of control | [9] 89 % of control

COc1ccc(C(C)S(=O)(=O)c2ccc(C)cc2)cc1OC (stereo not given)
inactive: [22] 97 % of control | [23] 97 % of control | dose: 400.0 mg/kg/injection, schedule: Q01DX001 (ip), vehicle: carboxymethylcellulose (CMC) 94 % of control

Nc1nc(N)c(-c2ccc(Cl)cc2)c(CNc2ccc([N+](=O)[O-])cc2)n1
inactive: [7] 109 % of control | [8] 95 % of control | [9] 95 % of control

CCSCCOc1c(C(C)(C)C)cc([N+](=O)[O-])c(C)c1[N+](=O)[O-]
inactive: dose: 100.0 mg/kg/injection, schedule: Q04DX002 (ip), vehicle: saline 103 % of control | dose: 200.0 mg/kg/injection, schedule: Q04DX002 (ip), vehicle: saline 100 % of control | dose: 400.0 mg/kg/injection, schedule: Q04DX002 (ip), vehicle: saline 106 % of control

COc1cc2c(cc1OC)C13CCN4C=C5CCOC6CC(=O)N2C1C6C5CC43 (stereo not given)
inactive: [21] 96 % of control

c1ccc2c(c1)ccc1c3ccncc3ccc21
inactive: [4] 101 % of control | [5] 98 % of control | [6] 98 % of control

CCOC(=O)C(CCC#N)(CCC#N)C(C)=O
inactive: [19] 105 % of control | [20] 94 % of control

O=C(Nc1ccccc1F)OCCOc1ccc(Br)cc1
inactive: [1] 103 % of control | [2] 97 % of control | [3] 123 % of control

CC1C(C(=O)c2ccc(-c3ccccc3)cc2)N1C1CCCCC1 (stereo not given)
inactive: [7] 93 % of control | [8] 86 % of control

O=C1OC(=O)c2cscc21
inactive: [7] 88 % of control | [8] 94 % of control

CCOC(=O)/C(=C\c1cccc2ccccc12)c1ccncc1
inactive: [16] 89 % of control | dose: 100.0 mg/kg/injection, schedule: Q01DX009 (ip), vehicle: saline with Tween-80 98 % of control | [17] 93 % of control | dose: 200.0 mg/kg/injection, schedule: Q01DX009 (ip), vehicle: saline with Tween-80 100 % of control | [18] 96 % of control

CC(C)C(C)/C=C\C(C)C1CCC2C3=CCC4CC(=O)CCC4(C)C3CCC21C (stereo not given)
inactive: dose: 50.0 mg/kg/injection, schedule: Q01DX001 (ip), vehicle: Klucel (hydroxypropylcellulose) (HPC) 88 % of control | dose: 100.0 mg/kg/injection, schedule: Q01DX001 (ip), vehicle: Klucel (hydroxypropylcellulose) (HPC) 93 % of control | dose: 200.0 mg/kg/injection, schedule: Q01DX001 (ip), vehicle: Klucel (hydroxypropylcellulose) (HPC) 88 % of control | dose: 400.0 mg/kg/injection, schedule: Q01DX001 (ip), vehicle: Klucel (hydroxypropylcellulose) (HPC) 97 % of control

Reference: PubChem BioAssay AID248 (DTP/NCI, 2004)
